Measured values reported in US9969715B2, “Compounds useful for treating cancer” (ABIVAX, priority 2012, dated 2018).

Tests used:
[1] = system: MDA-MB231-luc-D3H2LN cells; assay: Invasion of MDA-MB231-D3H2LN cells into collagen (example 15 = procedure 2, 48 h drug pre-incubation); format: cell-based; settings: concentration giving 50% of the anti-invasive effect of 10 μM Y-27632; 48 h pre-incubation, 24 h with 5% FBS; read-out: MDA: Inhib. of invasion: 0.5 × eff. of 10 μM Y-27632 at (μM) av
Description: Effect of Drug Compounds on Invasion of MDA-MB231-D3H2LN Cells into Collagen
Preparation of cells at the bottom of a collagen gel: Cells are suspended in a liquid collagen solution (4° C.), distributed into BSA-coated wells, and then collected at the bottom of the wells by centrifugation. The collagen is then solidified by incubation at 37° C. The BSA coating improves the adhesion of the collagen gel.
Pre-treatment with the compounds to be tested: Concentrated drug solutions are then added on top of the collagen, and cells are pre-incubated for 48 h with the drugs at low serum conditions (0.025% FBS).
Stimulation of invasion: Medium with 5% FBS is then added in order to stimulate invasion of the cells into the collagen gel.
(§1) Viability assay, fixation and staining: Following another 24 h incubation, an MTS assay is performed directly on the cells in the collagen. Then, cells are fixed and nuclei are stained.
Analysis: Finally, plates are analyzed using an automated microscope. Fluorescent beads that have been included into the BSA coating serve to detect the bottom of the wells. Pictures of the stained nuclei are taken at the same level (0 μm) as well as 25 μm and 50 μm above.
Negative control: No drug (just DMSO at equivalent concentration). Positive control: 10 μM Y-27632. To avoid edge effects, cells are added only to the 60 central wells B2-G11; lines A and H receive only collagen without cells (blank for the MTS assay) columns 1 and 12 remain free. Each drug is tested at least in triplicate. The positive and negative controls should be tested in several triplicates at different positions on each plate. Typical plate map (−=negative control, +=positive control, 1-12=12 different test conditions, i. e. different drug compounds or concentrations):
Preparation of 4× concentrated drug solutions in MEM+0.1% FBS+2% Lutrol E-400+0.8% DMSO: Mix each 620 μl MEM+0.1% FBS+2% Lutrol E-400 with each 4 μl DMSO+each 1 μl of the 50 mM compound stock solutions (yielding […] and 0.8% DMSO). If the desired final compound concentration is <5 μM, then further dilute in MEM+0.1% FBS+0.8% DMSO. Negative control: MEM+0.1% FBS+2% Lutrol E-400+0.8% DMSO without any drug. Preparation of the positive control: Mix 4.5 ml MEM+0.1% FBS+2% Lutrol E-400+[…] with 36 μl 5 mM Y-27632 (freshly thawed aliquot) (yielding 40 μM).
add each 33 μl/well of the 4× concentrated drug solutions in MEM+0.1% FBS+2% Lutrol E-400+0.8% DMSO to the corresponding wells (yields 1× concentrated drugs in MEM+0.025% FBS+0.5% Lutrol E-400+0.2% DMSO final)
incubate 48 h at 37° C./5% CO2
incubate 24 h at 37° C./5% CO2
for each well, calculate the mean invasion distance of the counted cells: (25 μm×number of cells at 25 μm+50 μm×number cells at 50 μm)/sum of cells at 0, 25 and 50 μm
invalidate any replicate with a CV≥50% (compound to be re-tested, or assay to be repeated if CV≥50% for the untreated negative control or the compound Y-27632-treated positive control). Y27632 is a selective inhibitor of the Rho-associated protein kinase p160ROCK of the following formula
validate the assay only if the mean invasion distance of the cells treated with 10 μM Y-27632 (positive control) is decreased by ≥40% as compared to the untreated negative control
(§2) Final analysis: Determine the concentration at which a given compound has 50% of the anti-invasive effect of the positive control (10 μM Y-27632). Determine the toxicity (=loss of viability) of the compound under these conditions.
Here, invasion (into collagen) is the concentration of the compound necessary to reach 50% of the inhibition effect compared to 10 μM Y-27632.
Standard operating procedure 2 is exactly the same as the procedure as described in example 15.

[2] = system: MDA-MB231-luc-D3H2LN cells; assay: Toxicity assay under normal cell culture conditions (MTS), MDA cells; format: cell-based, human; settings: MDA-MB231-luc-D3H2LN cells, MEM+10% FBS, 72 h incubation, MTS
Description: (§3) In order to detect possible toxic effects, all compounds are tested in parallel in a viability assay. The viability assay is performed in parallel on serum-starved cells (as in the invasion assay) vs. cells under normal culture conditions (10% FBS).
(§4) Toxicity Assays (Under Normal Cell Culture Conditions):
(§5) Compounds were prepared as for the invasion assay, and then added to either MDA-MB231-luc-D3H2LN cells (2000/well) under normal culture conditions (MEM+10% FBS), or human PBMC (75000/well, in RPMI+10% FBS+IL-2) in standard 96-well tissue culture plates. After 72 h incubation, a standard MTS assay was performed according to the manufacturer's instructions (Promega Ref. G3581). Compounds were tested at various concentrations (concentration-response curves) in order to determine the concentrations at which 50% toxicity is obtained.

[3] = system: human PBMC; assay: Toxicity assay under normal cell culture conditions (MTS), PBMC; format: cell-based; settings: human PBMC, RPMI+10% FBS+IL-2, 72 h incubation, MTS
Description: as §4, §5

[4] = biological target: T1, hERG channel (Homo sapiens, UniProt Q12809); assay: hERG channel inhibition (electrophysiology, hERG-transfected HEK293 cells); format: cell-based; settings: for % hERG inhibition in transfected HEK (n = 3) at 1 μM av: 1 μM compound; for % hERG inhibition in transfected HEK (n = 3) at 10 μM av: 10 μM compound
T1 construct: host or cells: HEK293
Description: Performed by Porsolt & Partners (Z. A. de Glatigné, 53940 Le Genest-Saint-Isle, France). Briefly, each 3 hERG-transfected HEK293 cells were superfused with the compounds at 1 and 10 μM, and the hERG channel current was measured by electrophysiology, as described by Crumb et al., J. Pharmacol. Exp. Ther. 2000.

[5] = system: MDA-MB231-luc-D3H2LN cells; assay: Viability (MTS) assay on the cells in collagen under invasion assay conditions; format: cell-based, human; settings: loss of viability at the concentration giving 0.5 × effect of 10 μM Y-27632, invasion assay conditions
Description: as §1, §3
Viability Assay: MTS Assay:
add each 33 μl/well of the MTS reagent, incubate 3-4 h at 37° C./5% CO2
read absorbance at 490 nm (proportional to the viability)
calculate the background-corrected signals by subtracting the means of the background signals in absence of cells from the corresponding signals in presence of cells
normalize the background-corrected signals with respect to the mean signal of the negative controls (no drug) (viabilities are thus expressed in “% of control”)
as §2

T1 sequence (Q12809 whole entry): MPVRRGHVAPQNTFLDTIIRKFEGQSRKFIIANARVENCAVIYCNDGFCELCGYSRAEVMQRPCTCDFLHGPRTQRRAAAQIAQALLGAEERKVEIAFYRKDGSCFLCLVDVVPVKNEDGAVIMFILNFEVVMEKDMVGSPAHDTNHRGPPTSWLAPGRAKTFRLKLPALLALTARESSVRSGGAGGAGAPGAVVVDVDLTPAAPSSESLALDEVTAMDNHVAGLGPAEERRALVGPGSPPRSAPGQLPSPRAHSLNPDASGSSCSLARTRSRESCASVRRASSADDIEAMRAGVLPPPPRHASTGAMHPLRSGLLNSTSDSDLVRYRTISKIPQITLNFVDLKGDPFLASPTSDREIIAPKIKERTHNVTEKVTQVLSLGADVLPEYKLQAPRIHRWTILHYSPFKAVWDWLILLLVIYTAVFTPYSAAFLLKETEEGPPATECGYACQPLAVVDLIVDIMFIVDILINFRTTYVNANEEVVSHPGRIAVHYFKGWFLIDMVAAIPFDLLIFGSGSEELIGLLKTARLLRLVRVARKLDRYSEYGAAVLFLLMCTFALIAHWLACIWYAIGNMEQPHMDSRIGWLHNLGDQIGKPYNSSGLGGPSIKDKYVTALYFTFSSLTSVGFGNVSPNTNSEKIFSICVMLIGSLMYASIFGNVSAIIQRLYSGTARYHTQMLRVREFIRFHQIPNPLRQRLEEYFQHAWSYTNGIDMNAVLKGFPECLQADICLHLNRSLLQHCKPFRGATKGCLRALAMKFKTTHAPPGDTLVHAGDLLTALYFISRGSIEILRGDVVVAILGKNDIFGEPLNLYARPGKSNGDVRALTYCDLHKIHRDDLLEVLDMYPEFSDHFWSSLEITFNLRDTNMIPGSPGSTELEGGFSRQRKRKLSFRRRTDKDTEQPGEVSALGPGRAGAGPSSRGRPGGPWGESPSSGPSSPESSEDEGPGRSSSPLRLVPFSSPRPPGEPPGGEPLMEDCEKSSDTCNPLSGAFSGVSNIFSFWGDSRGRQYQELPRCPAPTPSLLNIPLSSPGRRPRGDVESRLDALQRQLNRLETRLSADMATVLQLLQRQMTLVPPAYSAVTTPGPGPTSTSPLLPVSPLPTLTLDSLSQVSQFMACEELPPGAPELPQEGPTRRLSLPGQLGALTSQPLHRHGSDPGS

IC50 [1] [µM]	Compound	MDA tox: 50% tox. at (μM) av [2]	PBMC tox.: 50% tox. at (μM) av [3]	% hERG inhibition in transfected HEK (n = 3) at 1 μM av [4] [%]	% hERG inhibition in transfected HEK (n = 3) at 10 μM av [4] [%]	(+ MDA tox. under these cond.) % tox [5] [%]
0.3	O=C(NCCCN1CCCC1)c1cccc(Nc2cccc(/C=C/c3ccncc3)c2)c1 [Compound 585, reference compound]	10 µM	9 µM	42	77	<10
0.75	CCN(CC)CCCNC(=O)c1cccc(Nc2cccc(C(=O)Nc3ccncn3)c2)n1 [Compound 40, N-(3-(diethylamino)propyl)-6-((3-(pyrimidin-4-ylcarbamoyl)phenyl)amino)picolinamide]	73 µM	>100 µM	26	59	<10
0.4	CN1CCN(CCCNC(=O)c2ccnc(Nc3cccc(C(=O)Nc4ccncc4)c3)c2)CC1 [Compound 34]	98 µM	>100 µM			<10
0.28	O=C(NCCCN1CCOCC1)c1cccc(Nc2cccc(C(=O)Nc3ccncn3)c2)c1 [Compound 30, N-(3-morpholinopropyl)-3-((3-(pyrimidin-4-ylcarbamoyl)phenyl)amino)benzamide]	75 µM	>100 µM			<10
0.53	O=C(Nc1ccncc1)c1cccc(Nc2cccc(S(=O)(=O)NCCN3CCCCC3)c2)c1 [Compound 10, 3-((3-(N-(2-(piperidin-1-yl)ethyl)sulfamoyl)phenyl)amino)-N-(pyridin-4-yl)benzamide]	45 µM	29 µM			<10
0.38	CN1CCN(CCCNC(=O)c2ccnc(Nc3cc(C(=O)Nc4ccncc4)ccn3)c2)CC1 [Compound 45, N-(3-(4-methylpiperazin-1-yl)propyl)-2-((4-(pyridin-4-ylcarbamoyl)pyridin-2-yl)amino)isonicotinamide]	>100 µM	>100 µM			<10
3.45	CN(C(=O)c1cccc(Nc2cccc(C(=O)NCCCN3CCCC3)c2)c1)c1ccncc1 [Compound 18, N-methyl-N-(pyridin-4-yl)-3-((3-((3-(pyrrolidin-1-yl)propyl)carbamoyl)phenyl)amino)benzamide]	>100 µM	>100 µM			<10
3.25	CCN(CC)CCCNC(=O)c1cccc(Nc2cc(C(=O)Nc3ccncc3)ccn2)n1 [Compound 43, N-(3-(diethylamino)propyl)-6-((4-(pyridin-4-ylcarbamoyl)pyridin-2-yl)amino)picolinamide]	>100 µM	>100 µM			<10
1.15	CCN(CC)CCCNC(=O)c1ccnc(Nc2cc(C(=O)Nc3ccncc3)ccn2)c1 [Compound 44, N-(3-(diethylamino)propyl)-2-((4-(pyridin-4-ylcarbamoyl)pyridin-2-yl)amino)isonicotinamide]	>100 µM	>100 µM			<10
5	O=C(Nc1ccncc1)c1ccc(Nc2cccc(S(=O)(=O)NCCCN3CCOCC3)c2)cc1 [Compound 15, 4-((3-(N-(3-morpholinopropyl)sulfamoyl)phenyl)amino)-N-(pyridin-4-yl)benzamide]	>>44 μM	36 µM			<10
> 2	CCN(CC)CCCNC(=O)c1cccc(Nc2cccc(C(=O)Nc3ccccn3)c2)c1 [Compound 11, N-(3-(diethylamino)propyl)-3-((3-(pyridin-2-ylcarbamoyl)phenyl)amino)benzamide]	44 µM	47 µM	64	87	
3.75	CCN(CC)CCCNC(=O)c1cccc(Nc2cccc(C(=O)N(C)c3ccncc3)c2)n1 [Compound 37, N-(3-(diethylamino)propyl)-6-((3-(methyl(pyridin-4-yl)carbamoyl)phenyl)amino)picolinamide]	>>100 μM	>>100 μM			<10
2.05	CN(C(=O)c1cccc(Nc2cccc(C(=O)NCCCN3CCCCC3)c2)c1)c1ccncc1 [Compound 21, N-methyl-3-((3-((3-(piperidin-1-yl)propyl)carbamoyl)phenyl)amino)-N-(pyridin-4-yl)benzamide]	>100 µM	>100 µM			<10
3	CCN(CC)CCCNC(=O)c1cccc(Nc2cccc(C(=O)N(C)c3ccncc3)c2)c1 [Compound 17, 3-((3-((3-(diethylamino)propyl)carbamoyl)phenyl)amino)-N-methyl-N-(pyridin-4-yl)benzamide]	>100 µM	>100 µM			<10
13.3	CCN(CC)CCCNC(=O)c1cncc(Nc2cccc(C(=O)Nc3ccncc3)c2)c1 [Compound 32, N-(3-(diethylamino)propyl)-5-((3-(pyridin-4-ylcarbamoyl)phenyl)amino) nicotinamide]	>>100 μM	>>100 μM			<10
